# Measured values reported in US10093623B2, “Cyclic amides as MetAP-2 inhibitors” (MERCK PATENT GmbH, priority 2012, dated 2018).
# Molecular target: MetAP-2 (Homo sapiens, UniProt P50579)
# Test: MetAP-2 activity measurement (coupled enzymatic reactions, Met-Arg-Ser substrate, dianisidine detection at 450 nm)
# Assay type: biochemical
# Settings: Inhibition of MetAP-2; read-out: IC50 enzyme
# Procedure, shortened: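 Coupled continuous assay with Met-Arg-Ser tripeptide substrate: released methionine oxidised by L-amino acid oxidase to give H2O2, which peroxidase uses to oxidise dianisidine, followed at 450 nm. Activity taken as slope of absorbance versus time over the visually linear region; dianisidine extinction coefficient converts to mol Met per time.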
# MetAP-2, sequence (P50579 whole entry, species assumed): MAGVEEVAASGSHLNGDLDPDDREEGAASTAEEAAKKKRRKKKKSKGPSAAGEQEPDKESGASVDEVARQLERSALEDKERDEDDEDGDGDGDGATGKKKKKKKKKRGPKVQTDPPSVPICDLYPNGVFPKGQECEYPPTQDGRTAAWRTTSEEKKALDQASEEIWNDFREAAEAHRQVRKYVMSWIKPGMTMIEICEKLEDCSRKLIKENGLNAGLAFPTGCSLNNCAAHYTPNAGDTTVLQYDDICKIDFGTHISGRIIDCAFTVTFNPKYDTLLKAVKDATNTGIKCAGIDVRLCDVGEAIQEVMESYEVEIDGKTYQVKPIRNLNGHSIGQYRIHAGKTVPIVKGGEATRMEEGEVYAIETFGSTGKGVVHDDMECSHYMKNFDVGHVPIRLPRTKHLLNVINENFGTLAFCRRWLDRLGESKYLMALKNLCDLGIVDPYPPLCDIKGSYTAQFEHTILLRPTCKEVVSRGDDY
row,SMILES,IC50 [nM]
1,"O=C(NCCc1ccccc1F)C1(O)CCN(c2ccc3[nH]ccc3c2)C1=O (centres unmarked) [A210, N-[2-(2-Fluorophenyl)ethyl]-3-hydroxy-1-(1H-indol-5-yl)-2-oxo-pyrrolidine-3-carboxamide]",10 to 1000
2,"O=C(NCCc1cccc(F)c1)C1(O)CCN(c2ccc3[nH]ccc3c2)C1=O (centres unmarked) [A212, N-[2-(3-Fluorophenyl)ethyl]-3-hydroxy-1-(1H-indol-5-yl)-2-oxo-pyrrolidine-3-carboxamide]",10 to 1000
3,"CC(C)(C)OC(=O)N1CC(CN2CCC(O)(C(=O)NCc3cc(F)cc(Cl)c3)C2=O)C1 (centres unmarked) [A213, tert-Butyl 3-[3-(3-chloro-5-fluorobenzylcarbamoyl)-3-hydroxy-2-oxopyrrolidin-1-yl-methyl]-azetidine-1-carboxylate]",1000 to 10000
4,"O=C1CCc2cc(N3CCC(O)(C(=O)NCc4cc(F)cc(Cl)c4)C3=O)cnc2N1 (centres unmarked) [A214, N-(3-Chloro-5-fluorobenzyl)-3-hydroxy-2-oxo-1-(7-oxo-5,6,7,8-tetrahydro-1,8-naphthyridin-3-yl)pyrrolidine-3-carboxamide]",10 to 1000
5,"NC(=O)c1cncc(N2CCC(O)(C(=O)NCc3cc(F)cc(Cl)c3)C2=O)c1 (centres unmarked) [A216, 5-[3-(3-Chloro-5-fluorobenzylcarbamoyl)-3-hydroxy-2-oxopyrrolidin-1-yl]-nicotinamide]",10 to 1000
6,"N#Cc1cc2cc(N3CCC(O)(C(=O)NCc4cc(F)cc(Cl)c4)C3=O)ccc2[nH]1 (centres unmarked) [A217, N-(3-Chloro-5-fluorobenzyl)-1-(2-cyano-1H-indol-5-yl)-3-hydroxy-2-oxopyrrolidine-3-carboxamide]",10 to 1000
7,"O=C(NCc1cc(F)cc(Cl)c1)C1(O)CCN(CC2CNC2)C1=O (centres unmarked) [A218, N-(3-Chloro-5-fluorobenzyl)-1-azetidin-3-ylmethyl-3-hydroxy-2-oxopyrrolidine-3-carboxamide]",> 10000
8,"O=C(NCc1cc(F)cc(Cl)c1)C1(O)CCN(CC2CCOCC2)C1=O (centres unmarked) [A220, N-(3-Chloro-5-fluorobenzyl)-3-hydroxy-2-oxo-1-(tetrahydro-pyran-4-ylmethyl)pyrrolidine-3-carboxamide]",1000 to 10000
9,"N#Cc1c[nH]c2ccc(N3CC[C@](O)(C(=O)NCc4cc(F)cc(Cl)c4)C3=O)cc12 [A222, N-(3-Chloro-5-fluorobenzyl)-(S)-1-(3-cyano-1H-indol-5-yl)-3-hydroxy-2-oxopyrrolidine-3-carboxamide]",10 to 1000
10,"O=C1CCc2cc(N3CC[C@@](O)(C(=O)NCCc4cc(F)cc(F)c4)C3=O)ccc2N1 [A223, N-[2-(3,5-Difluorophenyl)ethyl]-(R)-3-hydroxy-2-oxo-1-(2-oxo-1,2,3,4-tetrahydroquinolin-6-yl)-pyrrolidine-3-carboxamide]",> 10000
11,"CC(C)(C)OC(=O)N1C[C@@H]2[C@H](C1)[C@H]2N1CCC(O)(C(=O)NCc2cc(F)cc(Cl)c2)C1=O (stereo partly drawn) [A228, tert-Butyl (1S,5R,6S)-6-[3-(3-chloro-5-fluorobenzyl-carbamoyl)-3-hydroxy-2-oxo-pyrrolidin-1-yl]-3-azabicyclo-[3.1.0]hexane-3-carboxylate]",1000 to 10000
12,"O=C(NCc1cc(F)cc(Cl)c1)C1(O)CCN([C@H]2[C@@H]3CNC[C@@H]32)C1=O (stereo partly drawn) [A229, N-(3-Chloro-5-fluorobenzyl)-1-(1S,5R,6S)-3-azabicyclo-[3.1.0]hex-6-yl-3-hydroxy-2-oxo-pyrrolidine-3-carboxamide]",> 10000
13,"CCS(=O)(=O)N1C[C@@H]2[C@H](C1)[C@H]2N1CCC(O)(C(=O)NCc2cc(F)cc(Cl)c2)C1=O (stereo partly drawn) [A230, N-(3-Chloro-5-fluorobenzyl)-1-((1S,5R,6S)-3-ethanesulfonyl-3-azabicyclo[3.1.0]hex-6-yl)-3-hydroxy-2-oxopyrrolidine-3-carboxamide]",1000 to 10000
14,"Cn1c(CN2CCC(O)(C(=O)NCc3cc(F)cc(Cl)c3)C2=O)nc2ccccc21 (centres unmarked) [A232, N-(3-Chloro-5-fluorobenzyl)-3-hydroxy-1-(1-methyl-1H-benzimidazol-2-ylmethyl)-2-oxo-pyrrolidine-3-carboxamide]",1000 to 10000
15,"O=C1CCc2cc(N3CC[C@](O)(C(=O)NCc4c(F)cc(F)cc4F)C3=O)ccc2N1 [A236, N-(2,4,6-Trifluorobenzyl)-(S)-3-hydroxy-2-oxo-1-(2-oxo-1,2,3,4-tetrahydroquinolin-6-yl)-pyrrolidine-3-carboxamide]",10 to 1000
16,"NC(=O)c1c[nH]c2ccc(N3CC[C@](O)(C(=O)NCc4cc(F)cc(Cl)c4)C3=O)cc12 [A238, 5-[(S)-3-(3-Chloro-5-fluorobenzylcarbamoyl)-3-hydroxy-2-oxopyrrolidin-1-yl]-1H-indole-3-carboxamide]",10 to 1000
17,"O=C1CCc2cc(N3CC[C@](O)(C(=O)NCc4ccc(Cl)cc4F)C3=O)ccc2N1 [A241, N-(4-Chloro-2-fluorobenzyl)-(S)-3-hydroxy-2-oxo-1-(2-oxo-1,2,3,4-tetrahydroquinolin-6-yl)-pyrrolidine-3-carboxamide]",10 to 1000
18,"O=C1CCc2cc(N3CC[C@](O)(C(=O)NCc4c(F)ccc(F)c4Cl)C3=O)ccc2N1 [A244, N-(2-Chloro-3,6-difluorobenzyl)-(S)-3-hydroxy-2-oxo-1-(2-oxo-1,2,3,4-tetrahydroquinolin-6-yl)-pyrrolidine-3-carboxamide]",10 to 1000
19,"O=C1CCc2cc(N3CC[C@](O)(C(=O)NCc4ccc(F)c(Cl)c4)C3=O)ccc2N1 [A247, N-(3-Chloro-4-fluorobenzyl)-(S)-3-hydroxy-2-oxo-1-(2-oxo-1,2,3,4-tetrahydroquinolin-6-yl)-pyrrolidine-3-carboxamide]",10 to 1000
20,"NC(=O)CN1CCC(O)(C(=O)NCc2cc(F)cc(Cl)c2)C1=O (centres unmarked) [A248, N-(3-Chloro-5-fluorobenzyl)-1-carbamoylmethyl-3-hydroxy-2-oxopyrrolidine-3-carboxamide]",1000 to 10000

# Second part, the molecule after the results:
row,IC50 [nM],SMILES
1,1000 to 10000,"CNC(=O)CN1CCC(O)(C(=O)NCc2cc(F)cc(Cl)c2)C1=O (centres unmarked) [A208, N-(3-Chloro-5-fluorobenzyl)-3-hydroxy-1-methylcarbamoyl-methyl-2-oxopyrrolidine-3-carboxamide]"
2,10 to 1000,"NC(=O)c1cc2cc(N3CCC(O)(C(=O)NCc4cc(F)cc(Cl)c4)C3=O)ccc2[nH]1 (centres unmarked) [A211, 5-[3-(3-Chloro-5-fluorobenzylcarbamoyl)-3-hydroxy-2-oxopyrrolidin-1-yl]-1H-indole-2-carboxamide]"
3,10 to 1000,"O=C(NCc1cc(F)cc(Cl)c1)C1(O)CCN(CCc2c[nH]c3ccc(F)cc23)C1=O (centres unmarked) [A219, N-(3-Chloro-5-fluorobenzyl)-1-[2-(5-fluoro-1H-indol-3-yl)ethyl]-3-hydroxy-2-oxopyrrolidine-3-carboxamide]"
4,10 to 1000,"O=C1CCc2cc(N3CC[C@](O)(C(=O)NCCc4cc(F)cc(F)c4)C3=O)ccc2N1 [A221, N-[2-(3,5-Difluorophenyl)ethyl]-(S)-3-hydroxy-2-oxo-1-(2-oxo-1,2,3,4-tetrahydroquinolin-6-yl)-pyrrolidine-3-carboxamide]"
5,1000 to 10000,"N#Cc1c[nH]c2ccc(N3CC[C@@](O)(C(=O)NCc4cc(F)cc(Cl)c4)C3=O)cc12 [A224, N-(3-Chloro-5-fluorobenzyl)-(R)-1-(3-cyano-1H-indol-5-yl)-3-hydroxy-2-oxopyrrolidine-3-carboxamide]"
6,1000 to 10000,"O=C(NCc1cc(F)cc(Cl)c1)C1(O)CCN(C[C@H]2CCCO2)C1=O (stereo partly drawn) [A225, N-(3-Chloro-5-fluorobenzyl)-3-hydroxy-2-oxo-1-[(R)-1-(tetrahydrofuran-2-yl)methyl]-pyrrolidine-3-carboxamide]"
7,1000 to 10000,"O=C(NCc1cc(F)cc(Cl)c1)C1(O)CCN(C[C@H]2CC[C@@H](C(=O)O)CC2)C1=O (some centres unmarked) [A226, 4-[3-(3-Chloro-5-fluorobenzyl-carbamoyl)-3-hydroxy-2-oxo-pyrrolidin-1-ylmethyl]cyclo-hexanecarboxylic acid]"
8,1000 to 10000,"O=C(NCc1cc(F)cc(Cl)c1)C1(O)CCN(C[C@H]2CC[C@H](C(=O)O)CC2)C1=O (some centres unmarked) [A227, 4-[3-(3-Chloro-5-fluorobenzyl-carbamoyl)-3-hydroxy-2-oxo-pyrrolidin-1-ylmethyl]cyclo-hexanecarboxylic acid]"
9,1000 to 10000,"CC(=O)N1C[C@@H]2[C@H](C1)[C@H]2N1CCC(O)(C(=O)NCc2cc(F)cc(Cl)c2)C1=O (stereo partly drawn) [A231, N-(3-Chloro-5-fluorobenzyl)-1-((1S,5R,6S)-3-acetyl-3-aza-bicyclo[3.1.0]hex-6-yl)-3-hydroxy-2-oxopyrrolidine-3-carboxamide]"
10,> 10000,"O=C(NCc1cc(F)cc(Cl)c1)C1(O)CCN([C@H]2CCNC2)C1=O (stereo partly drawn) [A233, N-(3-Chloro-5-fluorobenzyl)-(S)-3-hydroxy-2-oxo-[1,3′]bipyrrolidinyl-3-carboxamide]"
11,10 to 1000,"O=C1CCc2cc(N3CC[C@](O)(C(=O)NCc4cc(F)c(F)cc4Cl)C3=O)ccc2N1 [A234, N-(2-Chloro-4,5-difluorobenzyl)-(S)-3-hydroxy-2-oxo-1-(2-oxo-1,2,3,4-tetrahydroquinolin-6-yl)-pyrrolidine-3-carboxamide]"
12,10 to 1000,"O=C1CCc2cc(N3CC[C@](O)(C(=O)NCc4cc(Cl)c(F)cc4F)C3=O)ccc2N1 [A235, N-(5-Chloro-2,4-difluorobenzyl)-(S)-3-hydroxy-2-oxo-1-(2-oxo-1,2,3,4-tetrahydroquinolin-6-yl)-pyrrolidine-3-carboxamide]"
13,1000 to 10000,"O=C(NCc1cc(F)cc(Cl)c1)C1(O)CCN(CCc2ccc(F)cc2F)C1=O (centres unmarked) [A237, N-(3-Chloro-5-fluorobenzyl)-1-[2-(2,4-Difluorophenyl)ethyl]-3-hydroxy-2-oxopyrrolidine-3-carboxamide]"
14,10 to 1000,"O=C1CCc2cc(N3CC[C@](O)(C(=O)NCc4ccc(F)cc4Cl)C3=O)ccc2N1 [A242, N-(2-Chloro-4-fluorobenzyl)-(S)-3-hydroxy-2-oxo-1-(2-oxo-1,2,3,4-tetrahydroquinolin-6-yl)-pyrrolidine-3-carboxamide]"
15,10 to 1000,"O=C1CCc2cc(N3CC[C@](O)(C(=O)NCc4cc(F)c(F)cc4F)C3=O)ccc2N1 [A245, N-(2,4,5-Trifluorobenzyl)-(S)-3-hydroxy-2-oxo-1-(2-oxo-1,2,3,4-tetrahydroquinolin-6-yl)-pyrrolidine-3-carboxamide]"
